Test results: patent US20120053165A1, “Novel Phenyl Imidazoles and Phenyl Triazoles As Gamma-Secretase Modulators” (Pfizer Inc., priority 2009, published 2012)
Counter-ions that a name gives are not always drawn.
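Also: Aβ(1-42) released into conditioned medium captured by ELISA after roughly 24 h compound exposure, vehicle and inhibitor controls defining maximal and minimal inhibition.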

These compounds were tested on production of amyloid beta protein Aβ(1-42) in human WT-APP overexpressing CHO cells. Details: Homo sapiens, CHO, read-out: Aβ 42 IC50, Geometric mean of 2-8 determinations; human WT-APP overexpressing CHO cells.
Procedure: Cell-Based γ-Secretase Assay with ELISA Readout
The ability of compounds to modulate production of amyloid beta protein Aβ(1-42) was determined using human WT-APP overexpressing CHO cells. Cells were plated at 22,000 cells/100 μL well in 96 well tissue culture treated, clear plates (Falcon) in DMEM/F12 based medium and incubated for 24 hours at 37° C. […] Compounds were added in fresh medium to achieve 1% final DMSO. Appropriate vehicle and inhibitor controls were added to obtain maximum and minimum inhibition values for the assay before the plates were incubated for about 24 hours at 37° C.
Coating of ELISA assay plates was initiated by addition of 50 μL/well of an in house Aβ(1-42) specific antibody at (4 μg/mL) in 0.1 M NaHCO3 (pH 9.0) into black 384-well Maxisorp® plates (Nunc) and incubated overnight at 4° C. […] Ambient temperature incubation was allowed to proceed for a minimum of two hours before washing 2×100 μL with Wash Buffer (Dulbecco's PBS, 0.05% Tween 20). Assay Buffer (Dulbecco's PBS, 1.0% BSA (Sigma A7030), 0.05% Tween 20) 20 μL/well is then added.
After incubation overnight at 37° C., 5% CO2, 40 μL (in duplicate) of experimental conditioned media are transferred into wells of the blocked ELISA plates containing the capture antibody, followed by overnight incubation at 4° C.
After overnight incubation of the ELISA assay plates at 4° C., unbound Aβ peptides were removed thorough (4×100 μL) washes with Wash Buffer.
For `COc1cc(C(=O)N[C@@H]2CCC[C@@H]2c2ccc(F)cc2)ccc1-n1cnc(C)c1` [Example 115, N-[(1R,2R)-2-(4-fluorophenyl)cyclopentyl]-3-methoxy-4-(4-methyl-1H-imidazol-1-yl)benzamide], the IC50 was 798 nM. `COc1cc(C(=O)NCc2cc(-c3ccc(F)cc3)on2)ccc1-n1cnc(C)c1` [Example 116, N-{[5-(4-fluorophenyl)isoxazol-3-yl]methyl}-3-methoxy-4-(4-methyl-1H-imidazol-1-yl)benzamide] was tested, and the IC50 was 815 nM. Work on `COc1cc(C(=O)N2CCC(Oc3cccc(C(F)(F)F)c3)CC2)ccc1-n1cnc(C)c1` [Example 119, 1-[3-methoxy-4-(4-methyl-1H-imidazol-1-yl)benzoyl]-4-[3-(trifluoromethyl)phenoxy]piperidine] yielded an IC50 of 847 nM. `COc1cc(C(=O)NCC2COc3ccccc3C2)ccc1-n1cnc(C)c1` (centres unmarked) [Example 122, N-(3,4-dihydro-2H-chromen-3-ylmethyl)-3-methoxy-4-(4-methyl-1H-imidazol-1-yl)benzamide] was tested, and the IC50 was 976 nM. Compound `CCOc1cc(C)c(CN(C(=O)c2ccc(-n3cnc(C)c3)c(OC)c2)C2CC2)cc1C(C)C` [Example 124, N-cyclopropyl-N-(4-ethoxy-5-isopropyl-2-methylbenzyl)-3-methoxy-4-(4-methyl-1H-imidazol-1-yl)benzamide] has an IC50 of 114 nM. `COc1cc(C(=O)N[C@H]2CCc3ccc(Cl)cc32)ccc1-n1cnc(C)c1` [Example 129, N-[(1S)-6-chloro-2,3-dihydro-1H-inden-1-yl]-3-methoxy-4-(4-methyl-1H-imidazol-1-yl)benzamide] showed an IC50 of 605 nM. Work on `COc1cc(C(=O)NC2COc3ccc(C(F)(F)F)cc32)ccc1-n1cnc(C)c1` (centres unmarked) [Example 130, 3-methoxy-4-(4-methyl-1H-imidazol-1-yl)-N-[5-(trifluoro-methyl)-2,3-dihydro-1-benzofuran-3-yl]benzamide] yielded an IC50 of 666 nM. `COc1cc(C(=O)N2CC(COc3ccccc3C(F)(F)F)C2)ccc1-n1cnc(C)c1` [Example 131, 1-{2-methoxy-4-[(3-{[2-(trifluoro-methyl)phenoxy]methyl}azetidin-1-yl)carbonyl]phenyl}-4-methyl-1H-imidazole] showed an IC50 of 311 nM. `COc1cc(C(=O)N2CCC(COc3ccccc3C(F)(F)F)C2)ccc1-n1cnc(C)c1` (centres unmarked) [Example 132, 1-{2-methoxy-4-[(3-{[2-(tri-fluoromethyl)phenoxy]methyl}pyrrolidin-1-yl)carbonyl]phenyl}-4-methyl-1H-imidazole] was tested, and the IC50 was 472 nM. With `COc1cc(C(=O)N2CC(COc3cccc(C(F)(F)F)c3)C2)ccc1-n1cnc(C)c1` [Example 133, 1-{2-methoxy-4-[(3-{[3-(trifluoromethyl)phenoxy]methyl}azetidin-1-yl)carbonyl]phenyl}-4-methyl-1H-imidazole] the IC50 was 496 nM. `COc1cc(C(=O)N2CCCC2COc2ccccc2C(F)(F)F)ccc1-n1cnc(C)c1` (centres unmarked) [Example 134, 1-{2-methoxy-4-[(2-{[2-(tri-fluoromethyl)phenoxy]methyl}pyrrolidin-1-yl)carbonyl]phenyl}-4-methyl-1H-imidazole] gave an IC50 of 675 nM.

Same assay, conditions: Homo sapiens, CHO, read-out: Aβ 42 IC50, Geometric mean of at least 2 determinations; human WT-APP overexpressing CHO cells
In the case of `COc1cc(C(=O)N2CC(COc3cccc4ccccc34)C2)ccc1-n1cnc(C)c1` [Example 135, 1-[2-methoxy-4-({3-[(1-naphthyloxy)methyl]azetidin-1-yl}carbonyl)phenyl]-4-methyl-1H-imidazole trifluoroacetate salt], the IC50 is reported as 111 nM. For `COc1cc(C(=O)N2CC(COc3ccc(F)c(C)c3Cl)C2)ccc1-n1cnc(C)c1` [Example 136, 1-[4-({3-[(2-chloro-4-fluoro-3-methyl-phenoxy)methyl]azetidin-1-yl}carbonyl)-2-methoxyphenyl]-4-methyl-1H-imidazole trifluoroacetate salt], the IC50 was 311 nM. `COc1cc(C(=O)N2CC(COc3cccc4c3CCC4)C2)ccc1-n1cnc(C)c1` [Example 137, 1-[4-({3-[(2,3-dihydro-1H-inden-4-yloxy)methyl]azetidin-1-yl}carbonyl)-2-methoxyphenyl]-4-methyl-1H-imidazole trifluoroacetate salt] gave an IC50 of 411 nM. In the case of `CCc1cc(F)ccc1OCC1CN(C(=O)c2ccc(-n3cnc(C)c3)c(OC)c2)C1` [Example 138, 1-[4-({3-[(2-ethyl-4-fluorophenoxy)methyl]azetidin-1-yl}carbonyl)-2-methoxyphenyl]-4-methyl-1H-imidazole trifluoroacetate salt], the IC50 is reported as 537 nM. Work on `CCc1ccccc1OCC1CN(C(=O)c2ccc(-n3cnc(C)c3)c(OC)c2)C1` [Example 140, 1-[4-({3-[(2-ethylphenoxy)methyl]azetidin-1-yl}carbonyl)-2-methoxyphenyl]-4-methyl-1H-imidazole trifluoroacetate salt] yielded an IC50 of 593 nM.

Same assay, conditions: Homo sapiens, CHO, read-out: Aβ 42 IC50, Single IC50 determination; human WT-APP overexpressing CHO cells
`COc1ccc2c(c1)CCC2NC(=O)c1ccc(-n2cnc(C)c2)c(OC)c1` (centres unmarked) [Example 120, 3-methoxy-N-(5-methoxy-2,3-dihydro-1H-inden-1-yl)-4-(4-methyl-1H-imidazol-1-yl)benzamide] gave an IC50 of 878 nM.

Same assay, conditions: read-out: Aβ 42 IC50; Geometric mean of 2-8 determinations; human WT-APP overexpressing CHO cells
For `COc1cc(C(=O)NCCc2c(C)[nH]c3ccccc23)ccc1-n1cnc(C)c1` [Example 117, 3-methoxy-4-(4-methyl-1H-imidazol-1-yl)-N-[2-(2-methyl-1H-indol-3-yl)ethyl] benzamide], the IC50 was 828 nM. For `COc1cc(C(=O)N(C)Cc2cccc3ccccc23)ccc1-n1cnc(C)c1` [Example 118, 3-methoxy-N-methyl-4-(4-methyl-1H-imidazol-1-yl)-N-(1-naphthylmethyl) benzamide], the IC50 was 837 nM. Compound `COc1cc(C(=O)NCCc2nc3cc(C)ccc3o2)ccc1-n1cnc(C)c1` [Example 121, 3-methoxy-N-[2-(5-methyl-1,3-benzoxazol-2-yl)ethyl]-4-(4-methyl-1H-imidazol-1-yl) benzamide] has an IC50 of 880 nM. Compound `COc1cc(C(=O)N(Cc2cc(-c3ccccc3)ccc2C)C2CC2)ccc1-n1cnc(C)c1` [Example 123, N-cyclopropyl-3-methoxy-N-[(4-methylbi-phenyl-3-yl)methyl]-4-(4-methyl-1H-imidazol-1-yl) benzamide] has an IC50 of 73 nM. With `COc1cc(C(=O)N(Cc2cc(C(C)C)ccc2C)C2CC2)ccc1-n1cnc(C)c1` [Example 125, N-cyclopropyl-N-(5-isopropyl-2-methylbenzyl)-3-methoxy-4-(4-methyl-1H-imidazol-1-yl) benzamide] the IC50 was 185 nM. Work on `COc1cc(C(=O)N[C@@H](C)c2cccc(-c3ccccc3)c2)ccc1-n1cnc(C)c1` [Example 126, N-[(1S)-1-biphenyl-3-ylethyl]-3-methoxy-4-(4-methyl-1H-imidazol-1-yl) benzamide] yielded an IC50 of 492 nM. In the case of “N-[2-(4-fluoro- phenyl)-1,1- dimethylethyl]- 3-methoxy-4- (4-methyl-1H- imidazol-1-yl) benzamide [Example 37]”, the IC50 is reported as 519 nM. “N-[3-(3- chlorophenyl) propyl]-3- methoxy-4-(4- methyl-1H- imidazol-1-yl) benzamide [Example 46]” showed an IC50 of 579 nM. In the case of “N-{[3-(3- chlorophenyl)- 4,5-dihydro- isoxazol-5-yl] methyl}-3- methoxy-4- (4-methyl-1H- imidazol-1-yl) benzamide [Example 12]”, the IC50 is reported as 1310 nM.
